Like-named read-outs stand apart in the source and are kept apart here.
Columns and labels:
[1] = target: T1, human androgen receptor (AR) (Homo sapiens, UniProt P10275); assay: Co-transfection assay, AR agonist and antagonist activity, CV-1 cells (pRShAR); type: cell-based; settings: for AR Agonist CV-1 Cells Efficacy (%): agonist mode, relative to DHT; for AR Antagonist CV-1 Cells Efficacy (%): % maximal inhibition
T1 construct: expressed in transfected cells; host or cells: CV-1 cells, transient transfection
T1 sequence (P10275 1-920): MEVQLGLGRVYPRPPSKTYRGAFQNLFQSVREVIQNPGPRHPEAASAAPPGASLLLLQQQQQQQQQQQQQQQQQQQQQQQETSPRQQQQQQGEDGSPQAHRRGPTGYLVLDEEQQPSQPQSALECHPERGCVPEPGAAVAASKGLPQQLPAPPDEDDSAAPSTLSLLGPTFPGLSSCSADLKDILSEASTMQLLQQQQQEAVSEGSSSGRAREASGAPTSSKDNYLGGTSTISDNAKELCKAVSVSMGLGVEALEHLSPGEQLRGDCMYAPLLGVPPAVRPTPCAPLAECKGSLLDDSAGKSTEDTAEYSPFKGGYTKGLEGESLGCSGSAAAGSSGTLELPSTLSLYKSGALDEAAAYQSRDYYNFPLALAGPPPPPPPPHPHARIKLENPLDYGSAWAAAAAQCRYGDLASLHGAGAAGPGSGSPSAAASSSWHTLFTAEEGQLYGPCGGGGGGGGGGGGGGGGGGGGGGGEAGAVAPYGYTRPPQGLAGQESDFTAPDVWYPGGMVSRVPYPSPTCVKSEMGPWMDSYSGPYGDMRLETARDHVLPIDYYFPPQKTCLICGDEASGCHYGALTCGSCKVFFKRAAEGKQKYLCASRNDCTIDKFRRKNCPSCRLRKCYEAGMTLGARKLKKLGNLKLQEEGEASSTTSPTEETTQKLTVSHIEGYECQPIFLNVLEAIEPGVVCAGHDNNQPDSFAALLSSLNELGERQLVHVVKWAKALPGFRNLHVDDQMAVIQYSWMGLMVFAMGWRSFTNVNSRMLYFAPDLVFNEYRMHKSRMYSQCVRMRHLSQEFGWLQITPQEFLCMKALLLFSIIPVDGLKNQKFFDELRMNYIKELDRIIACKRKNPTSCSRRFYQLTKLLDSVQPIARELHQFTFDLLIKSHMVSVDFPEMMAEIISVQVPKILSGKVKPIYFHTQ

human PR-B = target: T2, human PR-B (Homo sapiens, UniProt P06401); assay: Co-transfection assay, PR agonist and antagonist activity, CV-1 cells; type: cell-based; settings: for EC50: read-out: PR Agonist CV-1 Cells Potency;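 on all read-outs here: luciferase reporter driven by a hormone response element, co-transfected with human PR-B into CV-1 monkey kidney cells, agonists raise and antagonists lower the reporter signal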
T2 construct: expressed in transfected cells; host or cells: CV-1 cells (African green monkey kidney fibroblasts), transient transfection
T2 sequence (P06401 1-933): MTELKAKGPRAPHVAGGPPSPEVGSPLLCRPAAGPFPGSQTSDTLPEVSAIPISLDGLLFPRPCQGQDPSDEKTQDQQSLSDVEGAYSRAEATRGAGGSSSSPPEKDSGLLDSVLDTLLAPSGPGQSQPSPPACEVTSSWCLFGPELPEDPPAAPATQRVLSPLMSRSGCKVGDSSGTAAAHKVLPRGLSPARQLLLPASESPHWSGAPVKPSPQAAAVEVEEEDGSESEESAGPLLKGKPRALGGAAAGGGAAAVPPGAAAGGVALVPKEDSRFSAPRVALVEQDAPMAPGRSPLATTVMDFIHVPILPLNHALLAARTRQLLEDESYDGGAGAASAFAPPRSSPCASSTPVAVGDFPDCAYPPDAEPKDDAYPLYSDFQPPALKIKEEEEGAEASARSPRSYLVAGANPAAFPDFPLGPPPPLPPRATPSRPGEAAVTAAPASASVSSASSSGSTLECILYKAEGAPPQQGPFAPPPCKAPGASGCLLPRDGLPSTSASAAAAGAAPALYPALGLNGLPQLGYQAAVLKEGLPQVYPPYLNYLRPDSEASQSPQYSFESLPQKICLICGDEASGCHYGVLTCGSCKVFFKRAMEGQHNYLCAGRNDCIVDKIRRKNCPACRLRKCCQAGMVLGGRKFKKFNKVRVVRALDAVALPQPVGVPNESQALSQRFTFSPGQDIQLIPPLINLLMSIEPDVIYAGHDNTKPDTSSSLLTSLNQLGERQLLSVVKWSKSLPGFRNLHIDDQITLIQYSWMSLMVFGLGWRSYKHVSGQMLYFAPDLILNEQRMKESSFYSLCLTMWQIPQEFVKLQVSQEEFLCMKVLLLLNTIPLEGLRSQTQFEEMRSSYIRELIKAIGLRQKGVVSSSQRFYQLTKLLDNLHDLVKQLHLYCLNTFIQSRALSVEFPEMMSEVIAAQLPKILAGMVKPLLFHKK

[2] = target: T3, human progesterone receptor A form (PR-A) (Homo sapiens, UniProt P06401); assay: PR binding assay, baculovirus extract, [3H] progesterone
T3 sequence (P06401 1-769 isoform P06401-2): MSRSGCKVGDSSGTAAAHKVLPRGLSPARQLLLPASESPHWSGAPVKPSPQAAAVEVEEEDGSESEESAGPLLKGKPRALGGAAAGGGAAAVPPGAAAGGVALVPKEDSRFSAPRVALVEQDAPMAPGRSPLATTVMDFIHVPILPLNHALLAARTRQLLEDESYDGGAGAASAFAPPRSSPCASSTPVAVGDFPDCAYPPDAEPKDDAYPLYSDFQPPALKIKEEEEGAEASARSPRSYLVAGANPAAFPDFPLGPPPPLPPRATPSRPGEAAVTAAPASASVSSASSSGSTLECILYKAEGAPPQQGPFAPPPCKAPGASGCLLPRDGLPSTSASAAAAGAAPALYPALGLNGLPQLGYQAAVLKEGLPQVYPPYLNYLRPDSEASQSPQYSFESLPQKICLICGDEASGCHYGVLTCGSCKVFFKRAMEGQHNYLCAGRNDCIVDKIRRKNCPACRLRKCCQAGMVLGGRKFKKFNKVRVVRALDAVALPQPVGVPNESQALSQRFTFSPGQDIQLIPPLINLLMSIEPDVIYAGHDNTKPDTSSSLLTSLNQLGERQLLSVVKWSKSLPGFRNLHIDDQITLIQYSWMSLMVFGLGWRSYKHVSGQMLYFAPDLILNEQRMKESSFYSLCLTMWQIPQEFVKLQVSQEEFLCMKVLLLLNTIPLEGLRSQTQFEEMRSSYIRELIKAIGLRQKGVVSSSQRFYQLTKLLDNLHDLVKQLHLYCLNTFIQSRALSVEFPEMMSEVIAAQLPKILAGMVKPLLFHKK

[3] = read-out: PR Antagonist CV-1 Cells Potency
[4] = agonist mode, percent maximal response relative to reference agonist progesterone
[5] = antagonist mode, progesterone at its EC50, % maximal inhibition

Row | Compound | AR Agonist CV-1 Cells Efficacy (%) ([1]; Table 2) | AR Antagonist CV-1 Cells Efficacy (%) ([1]; Table 2, antagonist mode) | PR Antagonist CV-1 Cells Efficacy (%) (human PR-B) | PR Agonist CV-1 Cells Efficacy (%) (human PR-B) | EC50 (human PR-B; agonist mode) [nM] | also measured
1 | CC1=CC(C)(C)Nc2cc3[nH]c(=O)cc(C(F)(F)F)c3cc21 [Compound 247, 1,2-Dihydro-2,2,4-trimethyl-6-trifluoromethyl-8-pyridono[5,6-g]quinoline] | 23% | 69 |  |  |  | 
2 | CC1C(=O)C(C)(C)Nc2ccc3c(c21)C(c1ccc(Cl)cc1)Oc1ccccc1-3 (single isomer, unassigned; (+)) [Compound 381, (+)-(R*-4l,5l)-5-(4-Chlorophenyl)-1,2,3,4-tetrahydro-2,2,4-trimethyl-5H-chromeno[3,4-f]-3-quinolinone] |  |  | na (na = not active (i.e. efficacy or <20 and potency of >10,000)) |  |  | 
3 | CC1=CC(C)(C)Nc2c(F)cc(-c3cccc([N+](=O)[O-])c3)cc21 [Compound 291, 8-Fluoro-1,2-dihydro-2,2,4-trimethyl-6-(3-nitrophenyl)quinoline] |  |  | 79% | na (na = not active (i.e. efficacy or <20 and potency of >10,000)) | > 10000 | Ki ([2]; read-out: PR Binding Ki): 4 nM; IC50 (human PR-B; [3]): 46 nM
4 | CC1=CC(C)(C)Nc2ccc(-c3nn(C)cc3Br)cc21 [Compound 104, 6-(4-Bromo-1-methylpyrazol-3-yl)-1,2-dihydro-2,2,4-trimethylquinoline] |  |  | 71% | 39% | 2750 | Ki ([2]; read-out: PR Binding Ki): 82 nM; IC50 (human PR-B; [3]): 120 nM
5 | CC1=CC(C)(C)Nc2ccc(-c3cccc([N+](=O)[O-])c3)c(Cl)c21 [Compound 310, 5-Chloro-1,2-dihydro-2,2,4-trimethyl-6-(3-nitrophenyl)quinoline] |  |  | 70% | na (na = not active (i.e. efficacy or <20 and potency of >10,000)) | > 10000 | Ki ([2]; read-out: PR Binding Ki): 7 nM; IC50 (human PR-B; [3]): 260 nM
6 | CC1=CC(C)(C)Nc2ccc(-c3csc(C#N)c3)cc21 [Compound 452, 6-(5-Cyano-3-thienyl)-1,2-dihydro-2,2,4-trimethylquinoline] |  |  |  |  | 2400 | Ki [2]: 17 nM; IC50 (human PR-B): 24 nM
7 | CC1=CC(C)(C)Nc2ccc3c(c21)/C(=C/c1ccc(F)cc1)Oc1ccccc1-3 [Compound 221, (Z)-5-(4-Fluorobenzylidene)-1,2-dihydro-2,2,4-trimethyl-5H-chromeno[3,4-f]quinoline] |  |  | na (key: na = not active (i.e. efficacy or <20 and potency of >10,000)) |  | 117 | Ki [2]: 4 nM; IC50 (human PR-B): > 10000 nM
8 | CC1(C)C=Cc2c(ccc3c2/C(=C/c2ccccc2)Oc2ccc(Cl)cc2-3)N1 [Compound 368, (Z)-5-Benzylidene-9-chloro-1,2-dihydro-2,2-dimethyl-5H-chromeno[3,4-f]quinoline] |  |  | na (na = not active (i.e. efficacy or <20 and potency of >10,000)) | 183% | 43 | Ki ([2]; read-out: PR Binding Ki): 4 nM; IC50 (human PR-B; [3]): > 10000 nM
9 | CC1(C)CNc2cc3[nH]c(=O)cc(C(F)(F)F)c3cc2C1 [Compound 437, 1,2,3,4-Tetrahydro-3,3-dimethyl-6-trifluoromethyl-8-pyridono[5,6-g]quinoline] | na (na = not active (i.e. efficacy of <20 and potency of >10,000)) | 72 |  |  |  | AR Agonist CV-1 Cells Efficacy (%) [1]: na (na = not active (i.e. efficacy of <20 and potency of >10,000)); activity as AR antagonists compared with 2-OH-flutamide ([1]; antagonist mode): equivual or better activity
10 | O=c1cc(C(F)(F)F)c2cc3c(cc2[nH]1)NCC3 [Compound 419, 5-Trifluoromethyl-7-pyridono[5,6-e]indoline] | 29% | 74 |  |  |  | 
11 | CC1=CC(C)(C)Nc2ccc(-c3cc(F)cc(C#N)c3)cc21 [Compound 271, 6-(3-Cyano-5-fluorophenyl)-1,2-dihydro-2,2,4-trimethylquinoline] |  |  | 78% | na (na = not active (i.e. efficacy or <20 and potency of >10,000)) |  | 
12 | 8-Bromo-12-dihydro-2,2,4-trimethylindeno[1,2-]quinoline [Compound 117] |  |  |  |  |  | PR Agonist CV-1 Cells Efficacy (%) (human PR-B; [4]): na (na = not active (i.e. efficacy or <20 and potency of >10,000)); PR Antagonist CV-1 Cells Efficacy (%) (human PR-B; [5]): 68%
13 | (R/S)-4-Ethyl-1,2,3,4-tetrahydro-1-methyl-8-pyranono[5,6-g]quinoline [Compound 416] | 88% | 24 |  |  |  | AR Agonist CV-1 Cells Efficacy (%) [1]: 88%; AR Antagonist CV-1 Cells Efficacy (%) ([1]; antagonist mode, DHT at its EC50): 24%
14 | CC1=CC(C)(C)Nc2ccc3c(c21)C(C)Oc1ccc(Cl)cc1-3 (racemic) [Compound 332, (R/S)-9-Chloro-1,2-dihydro-2,2,4,5-tetramethyl-5H-chromeno[3,4-f]quinoline] |  |  | na (na = not active (i.e. efficacy or <20 and potency of >10,000)) | 138% |  | 
15 | C[C@H]1C(=O)C(C)(C)Nc2ccc3c(c21)O[C@H](c1ccccc1)c1ccccc1-3 (relative stereo) [Compound 391, (R/S-4l,6l)-1,2,3,4-Tetrahydro-2,2,4-trimethyl-6-phenyl-5H-isochromeno[3,4-f]-3-quinolinone] |  |  |  |  |  | PR Agonist CV-1 Cells Efficacy (%) (human PR-B; [4]): na (na = not active (i.e. efficacy or <20 and potency of >10,000)); PR Antagonist CV-1 Cells Efficacy (%) (human PR-B; [5]): 65%
16 | 8-(4-Chlorobenzoyl)-5-trifluoromethyl-7-pyridono[5,6-e]indoline [Compound 420] | 40% | 80 |  |  |  | 
